Assays:
[1] = system: Human B Lymphocyte cell line, SU-DHL-8; test: Relative cell viability, SU-DHL-8 (CCK-8); assay type: cell-based; conditions: 48 hours, untreated (DMSO) = 100%
Experimental: Human-derived B lymphoma cell line SU-DHL-8 (Cat. #CRL-2961) purchased from ATCC was cultured in RPMI-1640 medium containing 10% FBS, 100 U/mL penicillin, and 100 μg/mL streptomycin.
The cell culture medium was then harvested, centrifuged at 1,300 rpm for 5 minutes, and the supernatant was removed. The cells were resuspended in the same medium and dispensed into a 96-well plate (Costar 96-well cell culture plate, Corning) at 90 μL per well, resulting in the conditions specified in Table 5.
Then, 10 μL of CCK-8 was added to each well, and the plates were incubated again at 37° C. in a 5% CO2 incubator for 4 hours.
In other words, when the survival rate of untreated cells (DMSO) is set at 100%, the relative cell survival rate in each group treated with the drug at different concentrations is indicated.

[2] = system: T cells isolated from mouse spleens; test: T cell proliferation inhibition (CFSE flow cytometry, anti-CD3/anti-CD28 stimulation); assay type: cell-based, C57BL/6 mice; conditions: three days
Experimental: To verify the T cell proliferation inhibitory effect of the compounds according to the present invention, the following experiment was performed based on flow cytometry analysis using carboxyfluorescein diacetate succinimidyl ester (CFSE), a fluorescent dye that binds to intracellular molecules via covalent bonds.
Spleens were extracted from 7-week-old C57BL/6 mice, ground, and then separated into single cells using a strainer (40 μm pore size, SPL). Red blood cells were removed using ACK (Ammonium-Chloride-Potassium) lysis buffer to isolate white blood cells.
Finally, using a MACS Magnetic Stand and LS column, T cells were isolated from the spleen.
The T cells isolated from the spleen were resuspended in 1 mL of free medium (RPMI-1640+200 U/mL penicillin+200 μg/mL streptomycin), and 0.3 μL of CFSE (10 mM) was added. The mixture was incubated at 37° C. for 5 minutes.
Free medium (10 mL) was added to stop the reaction, and the cells were centrifuged to obtain the cell pellet.
RPMI 1640 medium containing 10% FBS, 100 U/mL penicillin, 100 μg/mL streptomycin, and resuspended the cells. The cells were then seeded into a 96-well plate at a density of 2× 10^5 cells per well and activated with CD3 and CD28 antibodies (0.5 μg/mL each) to activate T cells.
The compound diluted in DMSO was added at concentrations of 10 nM, 100 nM, 1 μM, 10 μM, 30 μM, and 50 μM, with three wells per concentration, and cultured at 37° C. and 5% CO2 for three days. The cells were then analyzed using a FACS Canto instrument.
The proliferation inhibition rate (%) was calculated using the following formula: […]

Compound | Relative cell viability (%) ([1]; SU-DHL-8, 1 μM) | Relative cell viability (%) ([1]; SU-DHL-8, 10 μM) | Relative cell viability (%) ([1]; SU-DHL-8, 30 μM) | Proliferation inhibition rate (%) ([2]; concentration 100 nM) | Proliferation inhibition rate (%) ([2]; concentration 1 μM) | Proliferation inhibition rate (%) ([2]; concentration 10 μM) | Proliferation inhibition rate (%) ([2]; concentration 30 μM) | Proliferation inhibition rate (%) ([2]; concentration 50 μM) | Relative cell viability (%) ([1]; SU-DHL-8, 50 μM) | Proliferation inhibition rate (%) ([2]; concentration 10 nM) | Relative cell viability (%) ([1]; SU-DHL-8, 1 μM, listed as PBK-2024-024, 1 µM) | Relative cell viability (%) ([1]; SU-DHL-8, 10 μM, listed as PBK-2024-024, 10 µM) | Relative cell viability (%) ([1]; SU-DHL-8, 30 μM, listed as PBK-2024-024, 30 µM) | Relative cell viability (%) ([1]; SU-DHL-8, 50 μM, listed as PBK-2024-024, 50 µM) | Proliferation inhibition rate (%) ([2]; concentration 10 nM, listed as PBK-2024-024, 0.01 µM)
CC1CN(CCCCCCCCCCCCNC(=O)c2cccnc2N)CC(C)O1 (stereo not drawn) [Compound 21, 2-Amino-N-(12-(2,6-dimethylmorpholino)dodecyl) nicotinamide] | 9.64 | 7.68 | 3.70 | 100.00 | 100.00 | 100.00 | 100.00 | 100.00 |  |  |  |  |  |  | 
CC1(C)CCN(CCCCCCCCCCCCNC(=O)c2cccnc2N)C1 [Compound 22, 2-Amino-N-(12-(3,3-dimethylpyrrolidin-1-yl)dodecyl) nicotinamide] | 6.46 | 2.85 | 2.45 | 100.00 | 100.00 | 100.00 | 100.00 | 100.00 | 1.67 | −0.80 |  |  |  |  | 
CC1CCN(CCCCCCCCCCCCNC(=O)c2cccnc2N)C1 (stereo not drawn) [Compound 24, 2-Amino-N-(12-(3-methylpyrrolidin-1-yl)dodecyl) nicotinamide] | 8.38 | 1.65 | 0.62 | 100.00 | 100.00 | 100.00 | 100.00 | 100.00 |  |  |  |  |  |  | 
Nc1ncccc1C(=O)NCCCCCCCCCCCCN1CCS(=O)(=O)CC1 [Compound 25, 2-Amino-N-(12-(1,1-dioxidothiomorpholino)dodecyl) nicotinamide] | 9.73 | 1.26 | 0.11 |  | 100.00 | 100.00 | 100.00 | 100.00 | 0.95 |  |  |  |  |  | 
Nc1ncccc1C(=O)NCCCCCCCCCCCCN1CCC(F)C1 (stereo not drawn) [Compound 26, 2-Amino-N-(12-(3-fluoropyrrolidin-1-yl)dodecyl) nicotinamide] | 1.70 | 1.04 | 0.05 | 100.00 | 100.00 | 100.00 | 100.00 | 100.00 |  |  |  |  |  |  | 
COC1CCN(CCCCCCCCCCCCNC(=O)c2cccnc2N)C1 (stereo not drawn) [Compound 32, 2-Amino-N-(12-(3-methoxypyrrolidin-1-yl)dodecyl) nicotinamide] |  |  |  |  |  |  |  |  |  |  | 3.48 | 3.01 | 1.97 | 1.45 | 0.29
CC1CNCCN1CCCCCCCCCCCCNC(=O)c1cccnc1N (stereo not drawn) [Compound 35, 2-Amino-N-(12-(2-methylpiperazin-1-yl)dodecyl) nicotinamide] | 1.18 | 0.64 | 0.42 | 100.00 | 100.00 | 100.00 | 100.00 | 100.00 |  |  |  |  |  |  | 
C[C@H]1CNCCN1CCCCCCCCCCCCNC(=O)c1cccnc1N.Cl [Compound 37, (S)-2-Amino-N-(12-(2-methylpiperazin-1-yl)dodecyl) nicotinamide hydrochloride] | 6.38 | 4.45 | 3.17 |  | 100.00 | 100.00 | 100.00 | 100.00 | 2.32 |  |  |  |  |  | 
Nc1ncccc1C(=O)NCCCCCCCCCCCCN1CCC(Oc2ccncc2)CC1 [Compound 38, 2-Amino-N-(12-(4-(pyridin-4-yloxy)piperidin-1-yl)dodecyl) nicotinamide] | 4.16 | 3.30 | 1.79 | 100.00 | 100.00 | 100.00 | 100.00 | 100.00 | 1.42 |  |  |  |  |  | 
CC1CCCN(CCCCCCCCCCCCNC(=O)c2cccnc2N)CC1 (stereo not drawn) [Compound 39, 2-Amino-N-(12-(4-methylazepan-1-yl)dodecyl) nicotinamide] | 11.48 | 8.41 | 6.24 | 100.00 | 100.00 | 100.00 | 100.00 | 100.00 | 4.27 |  |  |  |  |  | 
CC1CN(C)C(CCCCCCCCCCCCNc2ccc3cncnc3n2)N1 (stereo not drawn) [Compound 43] | 22.61 | 11.93 | 2.34 | 100.00 | 100.00 | 100.00 | 100.00 | 100.00 | 1.58 |  |  |  |  |  | 
Cl.Nc1ncccc1C(=O)NCCCCCCCCCCCCN1CC[C@H](N)C1 [Compound 50, (S)-2-Amino-N-(12-(3-aminopyrrolidin-1-yl)dodecyl) nicotinamide hydrochloride] | 9.20 | 8.18 | 6.18 | 100.00 | 100.00 | 100.00 | 100.00 | 100.00 | 4.31 |  |  |  |  |  | 
CN1CCN(CCCCCCCCCCCCNC(=O)c2ccc(F)cn2)CC1 [Compound 203, 5-Fluoro-N-(12-(4-methylpiperazin-1-yl)dodecyl) picolinamide] |  |  |  | 1.16 | 6.80 | 100.00 | 100.00 | 100.00 |  | −4.49 |  |  |  |  | 
COc1ccc(C(=O)NCCCCCCCCCCCCN2CCN(C)CC2)nc1 [Compound 204, 5-methoxy-N-(12-(4-methylpiperazin-1-yl)dodecyl) picolinamide] |  |  |  | −0.14 | 12.30 | 95.01 | 100.00 | 100.00 |  | −2.60 |  |  |  |  | 
CN1CCN(CCCCCCCCCCCCNC(=O)c2ccncc2N)CC1 [Compound 209, 3-Amino-N-(12-(4-methylpiperazin-1-yl)dodecyl) isonicotinamide] |  |  |  | 1.59 | 18.81 | 84.52 | 100.00 | 100.00 |  | −1.45 |  |  |  |  | 

Reference: patent publication US20260183302A1, “PDK1 REGULATORY COMPOUND AND COMPOSITION CONTAINING THE SAME” (PROVIBIO CO., LTD., priority 2024, published 2026)
